Our source for the IC50 values is patent US11040981B2, “Pyrrolotriazine compounds and methods of inhibiting TAM kinases” (Syros Pharmaceuticals, Inc., priority 2017, dated 2021).

Test [1] deals with T1, AXL (Homo sapiens, UniProt P30530).
T1 sequence (P30530 26-894): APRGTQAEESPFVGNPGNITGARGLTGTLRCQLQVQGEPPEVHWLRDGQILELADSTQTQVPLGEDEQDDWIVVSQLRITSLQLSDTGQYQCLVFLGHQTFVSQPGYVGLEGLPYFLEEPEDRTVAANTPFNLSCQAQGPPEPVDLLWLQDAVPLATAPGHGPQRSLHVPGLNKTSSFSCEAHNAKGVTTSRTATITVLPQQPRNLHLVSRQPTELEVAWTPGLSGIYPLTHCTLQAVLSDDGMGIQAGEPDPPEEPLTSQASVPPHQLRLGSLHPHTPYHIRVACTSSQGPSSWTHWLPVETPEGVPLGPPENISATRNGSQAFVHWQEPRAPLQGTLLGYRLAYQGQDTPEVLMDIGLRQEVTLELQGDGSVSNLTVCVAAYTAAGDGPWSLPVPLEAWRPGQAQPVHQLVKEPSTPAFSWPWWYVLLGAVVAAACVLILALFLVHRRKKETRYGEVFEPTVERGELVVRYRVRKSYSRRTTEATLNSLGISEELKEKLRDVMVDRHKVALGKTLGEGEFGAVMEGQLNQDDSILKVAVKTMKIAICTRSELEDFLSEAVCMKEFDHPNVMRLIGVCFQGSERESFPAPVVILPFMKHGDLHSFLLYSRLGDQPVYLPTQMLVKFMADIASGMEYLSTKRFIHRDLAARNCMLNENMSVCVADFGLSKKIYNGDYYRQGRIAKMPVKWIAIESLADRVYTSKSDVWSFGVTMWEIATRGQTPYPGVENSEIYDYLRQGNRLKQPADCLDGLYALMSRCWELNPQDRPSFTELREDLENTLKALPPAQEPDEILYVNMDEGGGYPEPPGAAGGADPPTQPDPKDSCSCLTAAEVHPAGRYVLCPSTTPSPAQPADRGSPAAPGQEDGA
In words: TR-FRET kinase activity assay, AXL. The format is biochemical. The following applies: ATP at Km, 60 minutes. In a few lines: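 Enzyme + labelled peptide + cpd premixed; ATP at per-enzyme Km starts rxn. 60 min RT, HEPES pH 7.5/MgCl2/EGTA/Brij 35/DTT buffer. Stop 12.5 mM EDTA, Eu phospho-Ab 30 min dark, TR-FRET read → IC50.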
Background: TR-FRET usually uses a lanthanide donor and a delayed reading to cut background.

In test [2] the target is T2, TYRO3 (Homo sapiens, UniProt Q06418).
T2 sequence (Q06418 41-890): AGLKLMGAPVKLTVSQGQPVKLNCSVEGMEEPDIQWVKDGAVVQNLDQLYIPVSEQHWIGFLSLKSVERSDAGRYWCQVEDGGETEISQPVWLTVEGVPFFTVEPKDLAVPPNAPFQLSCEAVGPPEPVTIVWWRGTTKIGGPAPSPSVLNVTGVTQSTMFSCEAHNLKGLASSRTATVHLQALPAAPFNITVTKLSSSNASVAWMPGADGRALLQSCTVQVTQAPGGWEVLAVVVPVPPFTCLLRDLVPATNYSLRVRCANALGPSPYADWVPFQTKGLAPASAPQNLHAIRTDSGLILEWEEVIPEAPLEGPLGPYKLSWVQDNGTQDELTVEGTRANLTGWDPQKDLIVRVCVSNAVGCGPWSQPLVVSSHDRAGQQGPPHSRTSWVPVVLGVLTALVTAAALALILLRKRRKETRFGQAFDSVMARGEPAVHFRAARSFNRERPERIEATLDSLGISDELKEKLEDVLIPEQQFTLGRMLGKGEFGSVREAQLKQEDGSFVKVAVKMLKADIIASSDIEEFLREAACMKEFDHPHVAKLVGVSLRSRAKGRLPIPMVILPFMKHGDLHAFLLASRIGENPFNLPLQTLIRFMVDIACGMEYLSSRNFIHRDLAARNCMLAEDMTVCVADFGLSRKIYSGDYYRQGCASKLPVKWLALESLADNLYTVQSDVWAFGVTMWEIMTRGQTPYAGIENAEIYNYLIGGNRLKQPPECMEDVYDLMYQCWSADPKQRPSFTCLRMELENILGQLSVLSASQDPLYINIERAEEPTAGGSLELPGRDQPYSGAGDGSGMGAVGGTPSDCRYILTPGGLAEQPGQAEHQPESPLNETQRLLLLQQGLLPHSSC
In words: TR-FRET kinase activity assay, TYRO3. The class given is biochemical. The following applies: ATP at Km, 60 minutes. As to the method: IC50 values for compound inhibition of AXL, FLT3, MERTK and TYRO3 activity were determined by using a TR-FRET activity assay. A polypeptide substrate with a fluorescent label is phosphorylated on a tyrosine by each enzyme, where the now phosphorylated product is bound by a Europium-labeled antibody specific to that phosphorylation site. The proximity between the antibody and the substrate gives a signal known as TR-FRET. As the enzyme is inhibited by compound, less phosphorylated peptide product is made causing a decrease in overall signal.
Activity assays were performed in a 384-well, small volume, black microplates in an active enzyme volume of 10 μL and final developed volume of 20 μL. Final assay conditions are 50 mM HEPES pH 7.5, 10 mM MgCl2, 1 mM EGTA, 0.01% Brij 35 and 1 mM DTT all at RT. Enzyme, substrate labeled peptide and compound are mixed, and then the reaction is initiated with the addition of ATP at Km concentration for each enzyme. The reaction is allowed to run 60 minutes and then quenched with a 12.5 mM EDTA (ethylenediamine tetraacetic acid) solution. The plate is then developed with the addition of Europium labeled antibody for a final volume of 20 μL and is then incubated for 30 minutes in darkness. Plates are read in a Pherastar plate reader. Data is analyzed in GraphPad PRISM.
The results of these assays are shown in Table 1, below, wherein “No.” designates compound number (FIG. 1); “A” represents a value of ≤100 nM; “B” a value of >100 nM and ≤1 μM; “C” a value of >1 μM and ≤10 μM; “D” a value of >10 μM; “ND” is not determined. The ratio of Mer to FLT3 is calculated as follows: FLT3 IC50/Mer IC50. “+” represents a ratio of >2.0 and <10; “++” represents a ratio of between 10 and 100; and “+++” represents a ratio of >100.

Each structure is given as a SMILES string.

As to `COC[C@H](C)Nc1ncc2c(-c3ccc4c(c3)CC(=O)N4)cc([C@H]3CC[C@H](O)CC3)n2n1` [Compound 251], the IC50 (as a rule, the point on the concentration scale where inhibition reaches its midpoint) was 100 to 1000 nM in test [1] and not above 100 nM in test [2].

For the compound `COC[C@H](C)Nc1ncc2c(-c3ccc4c(c3)CNC4=O)cc([C@H]3CC[C@H](O)CC3)n2n1` [Compound 252], the IC50 in test [1] was 100 to 1000 nM; in test [2], not above 100 nM.

In the case of `COCC(C)Nc1ncc2c(-c3cccc(C)n3)cc(C3CCC(O)CC3)n2n1` (stereo not drawn) [Compound 253], the IC50 in test [1] is 1000 to 10000 nM; in test [2], not above 100 nM.

Turning to `COC[C@H](C)Nc1ncc2c(-c3ccc(N4CCOCC4)nc3)cc([C@H]3CC[C@H](O)CC3)n2n1` [Compound 254], the IC50 was 100 to 1000 nM in test [1] and not above 100 nM in test [2].

On to `CC(CCOC(F)F)Nc1ncc2c(-c3ccc(CN4CCOCC4)cc3)cc(C3CCC(O)CC3)n2n1` (stereo not drawn) [Compound 255], for which the IC50 in test [1] and in test [2] was not above 100 nM throughout.

Consider `COC[C@H](C)Nc1ncc2c(-c3ccnc(N4CCN(C)CC4)c3)cc([C@H]3CC[C@H](O)CC3)n2n1` [Compound 256], for which the IC50 in test [1] and in test [2] was not above 100 nM each time.

On to `COC[C@H](C)Nc1ncc2c(-c3cc(C)ccn3)cc([C@H]3CC[C@H](O)CC3)n2n1` [Compound 257], for which the IC50 in test [1] is 1000 to 10000 nM; in test [2] it was 100 to 1000 nM.

As for `COC[C@H](C)Nc1ncc2c(-c3ccc(C)cn3)cc([C@H]3CC[C@H](O)CC3)n2n1` [Compound 258], the figures for the IC50 in test [1] and in test [2] were 100 to 1000 nM and not above 100 nM, respectively.

In the case of `COC[C@H](C)Nc1ncc2c(-c3ccnc(N4CCOCC4)c3)cc([C@H]3CC[C@H](O)CC3)n2n1` [Compound 259], the IC50 in test [1] and in test [2] was not above 100 nM in each case.

As to `COC[C@H](C)Nc1ncc2c(-c3cn(C)nc3C)cc([C@H]3CC[C@H](O)CC3)n2n1` [Compound 260], the IC50 was 100 to 1000 nM in test [1] and not above 100 nM in test [2].

As for `COC[C@H](C)Nc1ncc2c(-c3cnc(C)o3)cc([C@H]3CC[C@H](O)CC3)n2n1` [Compound 261], the IC50 is 100 to 1000 nM in test [1] and not above 100 nM in test [2].

For `COCCn1cc(-c2cc([C@H]3CC[C@H](O)CC3)n3nc(N[C@@H](C)CC(F)(F)F)ncc23)cn1` [Compound 262], the IC50 in test [1] and in test [2] was not above 100 nM throughout.

As to `CNC(=O)c1ccc(-c2cc([C@H]3CC[C@H](O)CC3)n3nc(N[C@@H](C)CC(F)(F)F)ncc23)cn1` [Compound 263], the IC50 in test [1] and in test [2] was not above 100 nM each time.

With `COC[C@H](C)Nc1ncc2c(-c3cnn(CC(C)(C)O)c3)cc([C@H]3CC[C@H](O)CC3)n2n1` [Compound 264], the IC50 in test [1] and in test [2] was not above 100 nM in each case.

Turning to `COC[C@H](C)Nc1ncc2c(-c3cnn(C(C)(C)CO)c3)cc([C@H]3CC[C@H](O)CC3)n2n1` [Compound 265], the IC50 in test [1] and in test [2] was not above 100 nM throughout.

Consider `COC[C@H](C)Nc1ncc2c(-c3cnn(CC4(C#N)CC4)c3)cc([C@H]3CC[C@H](O)CC3)n2n1` [Compound 266], for which the IC50 in test [1] and in test [2] was not above 100 nM in each case.

For `COC[C@H](C)Nc1ncc2c(-c3cnnc(C)c3)cc([C@H]3CC[C@H](O)CC3)n2n1` [Compound 267], the IC50 in test [1] was 100 to 1000 nM; in test [2] it was not above 100 nM.

As for `Cc1cc(-c2cc([C@H]3CC[C@H](O)CC3)n3nc(N[C@@H](C)CC(F)(F)F)ncc23)cnn1` [Compound 268], the 50% inhibitory concentration (IC50) was 100 to 1000 nM in test [1] and not above 100 nM in test [2].

Consider `C[C@@H](CC(F)(F)F)Nc1ncc2c(-c3cnn(C4COC4)c3)cc([C@H]3CC[C@H](O)CC3)n2n1` [Compound 269], for which the IC50 in test [1] and in test [2] was not above 100 nM in each case.

`C[C@@H](COC(F)F)Nc1ncc2c(-c3cnn(C4COC4)c3)cc([C@H]3CC[C@H](O)CC3)n2n1` [Compound 270]: the IC50 in test [1] and in test [2] was not above 100 nM each time.

Turning to `COC[C@H](C)Nc1ncc2c(-c3ccc(N4CCN(C)CC4)nc3)cc([C@H]3CC[C@H](O)CC3)n2n1` [Compound 271], the IC50 in test [1] and in test [2] was not above 100 nM in each case.
